Measurements from patent publication US11530244B2, “Cyclic polypeptides for PCSK9 inhibition” (priority 2018, dated 2022).
Starred links: 1 amine or outer side, 2 acyl side, 3 side chain; linkers in the order of their positions; H or OH if unused. Positions of bridges follow the written chain, without caps; N, C: chain ends. Non-standard residues stand in square brackets, D forms with d. Residues, ends and D or L forms follow the SMILES beside them. Groups on a side chain read outwards from the residue. *: point of attachment. Phe(3-CH2NH2) = O=C([C@H](Cc1cccc(CN[*:3])c1)N[*:1])[*:2]; PEG12 = NCCOCCOCCOCCOCCOCCOCCOCCOCCOCCOCCOCCOCCC(=O)O; Trp(5-F) = N[C@@H](Cc1c[nH]c2ccc(F)cc12)C(=O)O; Phe(4-CH2NH2) = NCc1ccc(C[C@H](N)C(=O)O)cc1; X49 = NCCCC[C@H](N[*:1])c1nc(C(=O)[*:2])co1; Heptanedioyl = O=C(CCCCCC(=O)[*:2])[*:1]; γGlu = O=C(O)[C@H](CCC(=O)[*:2])N[*:1]; mXylylene = c1cc(C[*:1])cc(C[*:2])c1; Palmitoyl = CCCCCCCCCCCCCCCC(=O)*; αMeP = C[C@@]1(C(=O)O)CCCN1; AEEEA = NCCOCCOCCOCC(=O)O; PEG2 = NCCOCCOCCC(=O)O; AEEA = NCCOCCOCC(=O)O; Mpa = O=C(O)CCS

Legend:
PCSK9 [1] = target: T1, PCSK9 (Homo sapiens (Human), UniProt Q8NBP7); assay: PCSK9 Alexa FRET Standard assay (displacement of AlexaFluor647 tagged cyclic peptide Reagent A); format: binding; settings: PCSK9 Alexa FRET Standard assay, 0.5 nM PCSK9, 20 nM AF cyclic peptide Reagent A; read-out: IC50
Method in brief: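 TR-FRET displacement: 0.5 nM biotinylated PCSK9 with 1.25 nM Strep-Eu and 20 nM AlexaFluor-tagged cyclic peptide (final) in 50 mM HEPES pH 7.4, 0.15 M NaCl, 5 mM CaCl2, 0.01% BSA, 0.01% P20, ≥2 h at room temperature. IC50 from sigmoidal fit, converted to Ki via peptide KD; falling Eu counts flagged false positives.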

PCSK9 [2] = target: T1, PCSK9; assay: PCSK9 Alexa FRET Plus assay (displacement of AlexaFluor647 tagged cyclic peptide Reagent B); format: binding; settings: Alexa FRET Plus, 0.5 nM PCSK9, 960 nM AF cyclic peptide Reagent B; read-out: IC50
Experimental: A solution containing 1 nM biotinylated PCSK9+2.5 nM Lance Streptavidin Europium (Strep-Eu) was made in 50 mM HEPES pH 7.4, 0.15 M NaCl, 5 mM CaCl2), 0.01% BSA, and 0.01% Surfactant P20. A separate solution containing 1920 nM of the AlexaFluor tagged cyclic peptide was made in the same buffer system. An Echo was used to transfer 0.075 ul of compound plus 0.675 ul of DMSO to each well of an assay plate followed by the addition of 15 ul of PCSK9+Stept-Eu and 15 ul of AF peptide. The final assay volume was 30.750 ul containing 0.5 nM PCSK9, 1.25 nM Strep-Eu, and 960 nM AF cyclic peptide. The reaction was incubated at room temperature for at least two hours prior to fluorescence measurements using an Envision Multilabel Reader. IC50 values were determined by fitting data to a sigmoidal dose-response curve using nonlinear regression. Ki was then calculated from the IC50 and the KD of AF cyclic peptide. Counts (B-counts) of the europium-labeled PCSK9 were followed to observe if compounds were adversely affecting PCSK9. A fall off of the B-counts likely indicated a false positive of inhibition. Data from this procedure was reported as “P=‘numerical value’ (nanomolar)”

T1 sequence (Q8NBP7 153-692): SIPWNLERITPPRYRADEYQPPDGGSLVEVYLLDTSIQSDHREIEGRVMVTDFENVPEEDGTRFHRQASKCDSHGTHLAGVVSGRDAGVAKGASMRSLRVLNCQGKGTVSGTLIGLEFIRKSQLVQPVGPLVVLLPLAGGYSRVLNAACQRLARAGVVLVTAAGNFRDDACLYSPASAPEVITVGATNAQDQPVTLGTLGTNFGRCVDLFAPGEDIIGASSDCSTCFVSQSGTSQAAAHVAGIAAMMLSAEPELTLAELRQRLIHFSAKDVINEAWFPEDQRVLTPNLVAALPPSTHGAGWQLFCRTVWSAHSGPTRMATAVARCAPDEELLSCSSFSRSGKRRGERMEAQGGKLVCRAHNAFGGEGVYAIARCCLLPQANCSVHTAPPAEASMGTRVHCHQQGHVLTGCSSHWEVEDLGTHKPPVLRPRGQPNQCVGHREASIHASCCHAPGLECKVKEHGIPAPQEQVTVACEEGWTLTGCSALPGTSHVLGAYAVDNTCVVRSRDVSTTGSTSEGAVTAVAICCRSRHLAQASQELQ

| Structure (SMILES) | IC50 (PCSK9 [1]) [nM] | IC50 (PCSK9 [2]) [nM] |
| --- | --- | --- |
| CC(=O)N[C@@H]1CCCC/C=C\CO[C@H]2C[C@@H](C(N)=O)N(C2)C(=O)[C@H](Cc2ccc(O)cc2)NC(=O)[C@H](Cc2cnc[nH]2)NC(=O)[C@H](CC(=O)O)NC(=O)[C@H](Cc2c[nH]c3ccc(F)cc23)NC(=O)[C@H](Cc2c[nH]c3ccc(F)cc23)NC(=O)CNC1=O [Compound 422] | 0.11 to 100 | 100 to 500 |
| CCCCCCCCCCCCCCCC(=O)N[C@@H](CCC(=O)NCCOCCOCCOCCOCCOCCOCCOCCOCCOCCOCCOCCOCCC(=O)NCc1cccc(C[C@@H]2NC(=O)[C@@H](C)NC(=O)[C@H](CCCCN)NC(=O)CCSCc3cccc(c3)CSC[C@@H](C(N)=O)NC(=O)[C@]3(C)CCCN3C(=O)[C@H](Cc3ccc(O)cc3)NC(=O)[C@H](Cc3cnc[nH]3)NC(=O)[C@H](CC(=O)O)NC(=O)[C@H](Cc3c[nH]c4ccc(F)cc34)NC2=O)c1)C(=O)O [Compound 478] ([Mpa]K[dA][Phe(3-CH2NH2)]([PEG12-γGlu-Palmitoyl])[Trp(5-F)]DHY[αMeP]C-NH2; linker 1-10 via mXylylene) | 21000 to 50000 | 500 to 5000 |
| CCCCCCCCCCCCCCCC(=O)N[C@@H](CCC(=O)NCCOCCOCCC(=O)NCCOCCOCC(=O)NCCCC[C@H](NC(=O)COCCOCCOCCNC(=O)[C@@H]1CSCc2cccc(c2)CSCCC(=O)N[C@@H](CCCCN)C(=O)N[C@H](C)C(=O)N[C@@H](Cc2c[nH]c3ccc(F)cc23)C(=O)N[C@@H](Cc2c[nH]c3ccc(F)cc23)C(=O)N[C@@H](CC(=O)O)C(=O)N[C@@H](Cc2cnc[nH]2)C(=O)N[C@@H](Cc2ccc(O)cc2)C(=O)N2CCC[C@@]2(C)C(=O)N1)C(N)=O)C(=O)O [Compound 473] ([Mpa]K[dA][Trp(5-F)][Trp(5-F)]DHY[αMeP]C[AEEEA]K([AEEA-PEG2-γGlu-Palmitoyl])-NH2; linker 1-10 via mXylylene) | 21000 to 50000 | 500 to 5000 |
| COc1ccc(C[C@@H]2NC(=O)[C@H](Cc3cnc[nH]3)NC(=O)[C@H](CC(=O)O)NC(=O)[C@H](Cc3c[nH]c4ccc(F)cc34)NC(=O)[C@H](Cc3c[nH]c4ccc(F)cc34)NC(=O)[C@@H](C)NC(=O)CCc3cn(nn3)-c3ccc(cc3)C[C@@H](C(N)=O)NC(=O)[C@]3(C)CCCN3C2=O)cc1 [Compound 416] | 0.11 to 100 | 0.1 to 100 |
| C[C@@]12CCCN1C(=O)[C@H](Cc1ccc(O)cc1)NC(=O)[C@H](Cc1c[nH]cn1)NC(=O)[C@H](CC(=O)O)NC(=O)[C@H](Cc1c[nH]c3ccc(F)cc13)NC(=O)[C@H](Cc1c[nH]c3ccc(F)cc13)NC(=O)c1coc(n1)[C@H](CCCCN)NC(=O)CCSCc1cccc(c1)CSC[C@@H](C(N)=O)NC2=O [Compound 477] ([Mpa][X49][Trp(5-F)][Trp(5-F)]DHY[αMeP]C-NH2; linker 1-9 via mXylylene) | 1000 to 12100 | 500 to 5000 |
| NC(=O)[C@@H]1Cc2ccc(cc2)CNC(=O)CCCCCC(=O)NCC(=O)N[C@@H](Cc2c[nH]c3ccc(F)cc23)C(=O)N[C@@H](Cc2c[nH]c3ccc(F)cc23)C(=O)N[C@@H](CC(=O)O)C(=O)N[C@@H](Cc2cnc[nH]2)C(=O)N[C@@H](Cc2ccc(O)cc2)C(=O)N1 [Compound 455] (G[Trp(5-F)][Trp(5-F)]DHY[Phe(4-CH2NH2)]-NH2; linker N-7 via Heptanedioyl) | 1000 to 12100 | 500 to 5000 |
| CCCCCCCCCCCCCCCC(=O)N[C@@H](CCC(=O)NCCOCCOCC(=O)NCCOCCOCC(=O)NCCCC[C@@H]1NC(=O)[C@H](CCCCN)NC(=O)CCSCc2cccc(c2)CSC[C@@H](C(N)=O)NC(=O)[C@]2(C)CCCN2C(=O)[C@H](Cc2ccc(O)cc2)NC(=O)[C@H](Cc2cnc[nH]2)NC(=O)[C@H](CC(=O)O)NC(=O)[C@H](Cc2c[nH]c3ccc(F)cc23)NC(=O)[C@H](Cc2c[nH]c3ccc(F)cc23)NC1=O)C(=O)O [Compound 452] ([Mpa]KK([AEEA-AEEA-γGlu-Palmitoyl])[Trp(5-F)][Trp(5-F)]DHY[αMeP]C-NH2; linker 1-10 via mXylylene) | 0.11 to 100 | 0.1 to 100 |
| C[C@@]12CCCN1C(=O)[C@H](Cc1ccc(O)cc1)NC(=O)CN1C(=O)[C@@H](N=C(C3CCCCC3)c3ccccc31)NC(=O)[C@H](Cc1c[nH]c3ccc(F)cc13)NC(=O)[C@H](Cc1c[nH]c3ccc(F)cc13)NC(=O)CNC(=O)[C@H](CCCCN)NC(=O)CCSCc1cccc(c1)CSC[C@@H](C(N)=O)NC2=O [Compound 129] | 0.11 to 100 | 500 to 5000 |
